Results reported in paper PMC9404513 (ACS Omega, 2022).

Experiments:
MAO-B = molecular target: T1, MAO-B (Homo sapiens, UniProt P27338); experiment: Monoamine oxidase B inhibition; type: biochemical
T1 sequence (P27338 1-520): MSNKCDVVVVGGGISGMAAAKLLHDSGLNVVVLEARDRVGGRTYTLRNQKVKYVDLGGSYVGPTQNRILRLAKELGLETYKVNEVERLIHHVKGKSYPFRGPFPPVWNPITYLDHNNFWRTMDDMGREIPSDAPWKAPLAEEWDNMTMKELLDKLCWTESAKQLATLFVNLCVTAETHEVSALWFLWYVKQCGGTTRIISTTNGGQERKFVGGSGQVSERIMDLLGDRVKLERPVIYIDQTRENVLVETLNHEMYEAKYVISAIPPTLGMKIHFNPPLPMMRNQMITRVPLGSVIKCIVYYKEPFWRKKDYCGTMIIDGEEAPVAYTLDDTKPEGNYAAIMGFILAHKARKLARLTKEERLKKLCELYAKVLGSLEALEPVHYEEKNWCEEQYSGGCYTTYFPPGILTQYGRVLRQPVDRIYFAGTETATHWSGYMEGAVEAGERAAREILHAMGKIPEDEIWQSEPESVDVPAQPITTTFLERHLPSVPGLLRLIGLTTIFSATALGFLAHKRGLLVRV

[1] = Solubility in organic solvents; type: physicochemical; conditions: solvents in which the compound is soluble
MAO-A = molecular target: T2, MAO-A (Homo sapiens, UniProt P21397); experiment: Monoamine oxidase A inhibition; type: biochemical
T2 sequence (P21397 1-527): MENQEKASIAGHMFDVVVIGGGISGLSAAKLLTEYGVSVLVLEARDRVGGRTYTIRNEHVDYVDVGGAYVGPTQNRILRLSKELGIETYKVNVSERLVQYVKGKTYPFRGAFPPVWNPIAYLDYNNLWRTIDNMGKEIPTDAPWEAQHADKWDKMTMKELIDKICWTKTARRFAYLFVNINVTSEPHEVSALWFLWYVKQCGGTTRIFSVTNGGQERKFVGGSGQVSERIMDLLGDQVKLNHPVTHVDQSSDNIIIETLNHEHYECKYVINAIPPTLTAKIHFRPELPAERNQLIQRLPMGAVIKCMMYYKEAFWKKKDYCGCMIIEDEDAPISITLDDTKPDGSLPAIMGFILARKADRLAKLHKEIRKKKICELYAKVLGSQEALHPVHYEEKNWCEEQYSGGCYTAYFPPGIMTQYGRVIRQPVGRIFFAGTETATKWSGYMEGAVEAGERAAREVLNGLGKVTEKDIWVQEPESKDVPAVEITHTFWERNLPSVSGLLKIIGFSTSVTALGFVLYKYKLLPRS

CCOC(=O)C1=C(Nc2ccc(F)cc2)CC(c2ccc(C(F)(F)F)cc2)N(c2ccc(F)cc2)C1c1ccc(C(F)(F)F)cc1 (stereo not drawn) [FTEAA, Ethyl 4-(4-fluorophenylamino)-2,6-bis(4-(trifluoromethyl)phenyl)-1-(4-fluoro-phenyl)-1,2,5,6-tetrahydropyridine-3-carboxylate]
IC50 (MAO-B): 1020 ± 110 nM | solubility [1]: acetone, chloroform, dichloromethane, ethyl acetate and ethanol | IC50 (MAO-A): 520 ± 30 nM
